# According to ChEMBL document CHEMBL4118048, “Characterization of the Polymyxin D Synthetase Biosynthetic Cluster and Product Profile of Paenibacillus polymyxa ATCC 10401” (2017):
# Active and inactive are the calls of the source. The rule behind the calls is not given here. Where a SMILES comes first, the peptide text is derived from it. Bridges are numbered along the chain shown (N, C = ends). [ ]: non-standard residue; d: D form. The star is where a group is joined. Heptanoyl(6-Me) = CC(C)CCCCC(=O)*; X1 = CC[C@H](C)CCCCC(=O)*; Dab = NCC[C@H](N)C(=O)O
# What was measured:
# [1] = system: Acinetobacter baumannii; test: Antibacterial activity against Acinetobacter baumannii ATCC 19606 after 18 hrs by broth microdilution method; assay type: functional; conditions: ATCC 19606 = CIP 70.34 = JCM 6841, 18 h
# [2] = system: Klebsiella pneumoniae; test: Antibacterial activity against Klebsiella pneumoniae isolate FADDI-KP032 after 18 hrs by broth microdilution method; assay type: functional; conditions: isolate FADDI-KP032, 18 h
# [3] = system: Klebsiella pneumoniae; test: Antibacterial activity against Klebsiella pneumoniae isolate FADDI-KP032 infected in mouse assessed as reduction in bacterial count in blood at 4 mg/kg, ip measured after 4 hrs; assay type: functional, organism-based
# [4] = system: Pseudomonas aeruginosa; test: Antibacterial activity against Pseudomonas aeruginosa ATCC 27853 infected in mouse assessed as reduction in bacterial count in blood at 4 mg/kg, ip measured after 4 hrs; assay type: functional
# [5] = system: Acinetobacter baumannii; test: Antibacterial activity against Acinetobacter baumannii ATCC 19606 infected in mouse assessed as reduction in bacterial count in blood at 4 mg/kg, ip measured after 4 hrs; assay type: functional, organism-based; conditions: ATCC 19606 = CIP 70.34 = JCM 6841
# [6] = system: Pseudomonas aeruginosa; test: Antibacterial activity against Pseudomonas aeruginosa ATCC 27853 after 18 hrs by broth microdilution method; assay type: functional; conditions: ATCC 27853, 18 h
# [7] = system: Pseudomonas aeruginosa; test: Antibacterial activity against Pseudomonas aeruginosa isolate FADDI-PA038 after 18 hrs by broth microdilution method; assay type: functional; conditions: isolate FADDI-PA038, 18 h
# [8] = system: Klebsiella pneumoniae; test: Antibacterial activity against Klebsiella pneumoniae ATCC 700721 after 18 hrs by broth microdilution method; assay type: functional; conditions: ATCC 700721, 18 h
# [9] = system: Acinetobacter baumannii; test: Antibacterial activity against Acinetobacter baumannii isolate FADDI-AB034 after 18 hrs by broth microdilution method; assay type: functional; conditions: isolate FADDI-AB034, 18 h
# [10] = system: Escherichia coli; test: Antibacterial activity against Escherichia coli isolate FADDI-EC001 after 18 hrs by broth microdilution method; assay type: functional; conditions: isolate FADDI-EC001, 18 h
# [11] = system: Pseudomonas aeruginosa; test: Antibacterial activity against Pseudomonas aeruginosa isolate FADDI-PA025 after 18 hrs by broth microdilution method; assay type: functional; conditions: isolate FADDI-PA025, 18 h
# [12] = system: Escherichia coli; test: Antibacterial activity against Escherichia coli isolate FADDI-EC003 after 18 hrs by broth microdilution method; assay type: functional; conditions: isolate FADDI-EC003, 18 h
# [13] = system: Acinetobacter baumannii; test: Antibacterial activity against Acinetobacter baumannii ATCC 17978 after 18 hrs by broth microdilution method; assay type: functional; conditions: ATCC 17978, 18 h
# [14] = system: Pseudomonas aeruginosa; test: Antibacterial activity against Pseudomonas aeruginosa isolate FADDI-PA001 after 18 hrs by broth microdilution method; assay type: functional; conditions: isolate FADDI-PA001, 18 h
# [15] = system: Acinetobacter baumannii; test: Antibacterial activity against Acinetobacter baumannii isolate FADDI-AB030 after 18 hrs by broth microdilution method; assay type: functional; conditions: isolate FADDI-AB030, 18 h
# [16] = system: Klebsiella pneumoniae; test: Antibacterial activity against Klebsiella pneumoniae ATCC 13883 after 18 hrs by broth microdilution method; assay type: functional; conditions: ATCC 13883, 18 h
# [17] = system: Klebsiella pneumoniae; test: Antibacterial activity against Klebsiella pneumoniae isolate FADDI-KP065 after 18 hrs by broth microdilution method; assay type: functional; conditions: isolate FADDI-KP065, 18 h
# [18] = system: Escherichia coli; test: Antibacterial activity against Escherichia coli isolate FADDI-EC006 after 18 hrs by broth microdilution method; assay type: functional; conditions: isolate FADDI-EC006, 18 h
# [19] = system: Pseudomonas aeruginosa; test: Antibacterial activity against Pseudomonas aeruginosa isolate FADDI-PA022 after 18 hrs by broth microdilution method; assay type: functional; conditions: isolate FADDI-PA022, 18 h
# [20] = system: Klebsiella pneumoniae; test: Antibacterial activity against Klebsiella pneumoniae BM1 after 18 hrs by broth microdilution method; assay type: functional; conditions: BM1, 18 h
# [21] = system: Klebsiella pneumoniae; test: Antibacterial activity against Klebsiella pneumoniae isolate FADDI-KP022 after 18 hrs by broth microdilution method; assay type: functional; conditions: isolate FADDI-KP022, 18 h
MIC [1] [µg/mL],MIC [2] [µg/mL],MIC [6] [µg/mL],MIC [7] [µg/mL],MIC [8] [µg/mL],MIC [9] [µg/mL],MIC [10] [µg/mL],MIC [11] [µg/mL],MIC [12] [µg/mL],MIC [13] [µg/mL],MIC [14] [µg/mL],MIC [15] [µg/mL],MIC [16] [µg/mL],MIC [17] [µg/mL],MIC [18] [µg/mL],MIC [19] [µg/mL],Structure (SMILES),Activity [3],log(activity) [4],Activity [5],Activity [4],also measured
8 to 32,8 to 32,8 to 32,8 to 32,8 to 32,8 to 32,8 to 32,8 to 32,8 to 32,8 to 32,8 to 32,8 to 32,8 to 32,8 to 32,8 to 32,8 to 32,CC[C@H](C)CCCCC(=O)N[C@@H](CCN)C(=O)N[C@H](C(=O)N[C@H](CO)C(=O)N[C@H]1CCNC(=O)[C@H]([C@@H](C)O)NC(=O)[C@H](CCN)NC(=O)[C@H](CCN)NC(=O)[C@H]([C@@H](C)O)NC(=O)[C@@H](CC(C)C)NC(=O)[C@H](CCN)NC1=O)[C@@H](C)O (X1-[Dab]T[dS][Dab][Dab][dL]T[Dab][Dab]T; lactam 4-C),Active,–,Active,inactive,MIC [20]: 8 to 32 µg/mL; MIC [21]: 8 to 32 µg/mL
8 to 32,8 to 32,8 to 32,8 to 32,8 to 32,8 to 32,8 to 32,8 to 32,8 to 32,8 to 32,8 to 32,8 to 32,8 to 32,8 to 32,8 to 32,8 to 32,CC(C)CCCCC(=O)N[C@@H](CCN)C(=O)N[C@H](C(=O)N[C@H](CO)C(=O)N[C@H]1CCNC(=O)[C@H]([C@@H](C)O)NC(=O)[C@H](CCN)NC(=O)[C@H](CCN)NC(=O)[C@H]([C@@H](C)O)NC(=O)[C@@H](CC(C)C)NC(=O)[C@H](CCN)NC1=O)[C@@H](C)O ({Heptanoyl(6-Me)}-[Dab]T[dS][Dab][Dab][dL]T[Dab][Dab]T; lactam 4-C),Active,–,Active,inactive,MIC [20]: 8 to 32 µg/mL; MIC [21]: 8 to 32 µg/mL
0.5,0.5,0.5,–,–,–,–,–,–,–,–,–,–,–,–,–,CC(C)CCCCC(=O)N[C@@H](CCN)C(=O)N[C@H](C(=O)N[C@@H](CCN)C(=O)N[C@H]1CCNC(=O)[C@H]([C@@H](C)O)NC(=O)[C@H](CCN)NC(=O)[C@H](CCN)NC(=O)[C@H](CC(C)C)NC(=O)[C@@H](Cc2ccccc2)NC(=O)[C@H](CCN)NC1=O)[C@@H](C)O [POLYMYXIN B2] ({Heptanoyl(6-Me)}-[Dab]T[Dab][Dab][Dab][dF]L[Dab][Dab]T; lactam 4-C),Active,-2.55,Active,–,–

Structure (SMILES),MIC [1] [µg/mL],MIC [2] [µg/mL],MIC [6] [µg/mL],MIC [7] [µg/mL],MIC [8] [µg/mL],MIC [9] [µg/mL],MIC [10] [µg/mL],MIC [11] [µg/mL],MIC [12] [µg/mL],MIC [13] [µg/mL],MIC [14] [µg/mL],MIC [15] [µg/mL],MIC [16] [µg/mL],MIC [17] [µg/mL],MIC [18] [µg/mL],MIC [19] [µg/mL],Activity [3],log(activity) [4],Activity [5],Activity [4],also measured
CC[C@H](C)CCCCC(=O)N[C@@H](CCN)C(=O)N[C@H](C(=O)N[C@@H](CCN)C(=O)N[C@H]1CCNC(=O)[C@H]([C@@H](C)O)NC(=O)[C@H](CCN)NC(=O)[C@H](CCN)NC(=O)[C@H](CC(C)C)NC(=O)[C@@H](Cc2ccccc2)NC(=O)[C@H](CCN)NC1=O)[C@@H](C)O (X1-[Dab]T[Dab][Dab][Dab][dF]L[Dab][Dab]T; lactam 4-C),0.5,0.5,0.5,–,–,–,–,–,–,–,–,–,–,–,–,–,Active,-2.55,Active,–,–
